Measurements as given in ChEMBL document CHEMBL5113495, “Discovery of novel orexin receptor antagonists using a 1,3,5-trioxazatriquinane bearing multiple effective residues (TriMER) library” (Eur J Med Chem, 2022).
Active and inactive are the calls of the source. The calls are words filed in the database; no cut-off is given here.

How the values were obtained:
Orexin receptor type 2 = target: T1, Orexin receptor type 2 (Homo sapiens, UniProt O43614); assay: Antagonist activity at human OX2R expressed in CHO-K1 cells assessed as inhibition of orexin-A-induced increase in calcium mobilization preincubated for 15 mins followed orexin-A stimulation by Fura-2-AM dye based fluorescence assay; assay type: functional, cell-based
T1 sequence (O43614 whole entry): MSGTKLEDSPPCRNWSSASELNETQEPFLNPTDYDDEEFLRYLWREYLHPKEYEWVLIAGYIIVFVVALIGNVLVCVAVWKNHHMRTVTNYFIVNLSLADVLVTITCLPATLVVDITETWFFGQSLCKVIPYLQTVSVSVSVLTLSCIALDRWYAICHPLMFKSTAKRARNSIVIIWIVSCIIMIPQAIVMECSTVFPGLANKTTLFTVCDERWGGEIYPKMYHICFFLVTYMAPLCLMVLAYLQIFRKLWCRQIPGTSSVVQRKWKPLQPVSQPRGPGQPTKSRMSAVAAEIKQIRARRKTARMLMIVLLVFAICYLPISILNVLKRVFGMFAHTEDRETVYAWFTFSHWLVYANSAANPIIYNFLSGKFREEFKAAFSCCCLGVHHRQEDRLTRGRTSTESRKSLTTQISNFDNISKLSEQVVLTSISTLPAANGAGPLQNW

[1] = target: T2, Orexin/Hypocretin receptor type 1 (Homo sapiens, UniProt O43613); assay: Antagonist activity at human OX1R expressed in CHO-K1 cells assessed as inhibition of orexin-A-induced increase in calcium mobilization preincubated for 15 mins followed orexin-A stimulation by Fura-2-AM dye based fluorescence assay; assay type: functional, cell-based
T2 sequence (O43613 whole entry): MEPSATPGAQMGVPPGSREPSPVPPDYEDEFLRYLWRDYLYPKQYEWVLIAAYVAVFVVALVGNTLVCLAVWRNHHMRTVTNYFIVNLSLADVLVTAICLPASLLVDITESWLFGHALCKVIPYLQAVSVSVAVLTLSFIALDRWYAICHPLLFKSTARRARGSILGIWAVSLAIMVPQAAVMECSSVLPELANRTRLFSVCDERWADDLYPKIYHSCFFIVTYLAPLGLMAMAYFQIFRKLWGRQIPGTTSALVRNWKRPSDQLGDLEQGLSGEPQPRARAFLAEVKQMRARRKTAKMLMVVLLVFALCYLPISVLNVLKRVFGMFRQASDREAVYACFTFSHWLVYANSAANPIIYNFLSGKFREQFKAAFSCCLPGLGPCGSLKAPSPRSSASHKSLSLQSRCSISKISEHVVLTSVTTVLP

[2] = Metabolic stability in pooled human liver microsomes assessed as intrinsic clearance […] preincubated for 5 mins followed by NADPH addition and measured upto 60 mins by HPLC-MS/MS analysis; assay type: ADME, Microsome; details: time < 65 min, read-out: CLH
Mus musculus [3] = assay: Effect on locomotor activity in ip dosed ICR mouse assessed as suppression of orexin-induced enhancement of locomotor activity pretreated with compound for 30 mins followed by orexin stimulation by infrared light beam-braking system locomotor recording system; assay type: functional, organism-based; details: dose 3-10 mg/kg, DDE = dose-dependent effect
[4] = Drug concentration in C57BL/6J mouse brain at 10 mg/kg, ip measured after 0.5 hrs by LC-MS/MS analysis; assay type: ADME, organism-based; details: in vivo
[5] = Apparent permeability across apical to basolateral side in human Caco-2 cells at pH 7.4; assay type: ADME, cell-based; details: Caco-2, pH 7.4
[6] = Passive apparent permeability in MDCK cells; assay type: ADME, cell-based, Canis lupus familiaris; details: dog
[7] = Metabolic stability in pooled human liver microsomes assessed as half-life […] preincubated for 5 mins followed by NADPH addition and measured upto 60 mins by HPLC-MS/MS analysis; assay type: ADME, Microsome; details: time < 65 min
[8] = Apparent permeability across apical to basolateral side in human Caco-2 cells at pH 7.4 in the presence of 1% BSA; assay type: ADME, cell-based; details: Caco-2, pH 7.4
Mus musculus [9] = assay: Sleep inducing activity in C57BL/6J mouse assessed as increase in total time of NREM sleep during dark phase at 10 mg/kg, ip measured at 12 to 18 hrs by EEG/EMG analysis; assay type: functional, organism-based; details: time 12-18 hrs
Mus musculus [10] = assay: Sleep inducing activity in C57BL/6J mouse assessed as decrease in total time of wakefulness during dark phase at 10 mg/kg, ip measured at 12 to 18 hrs by EEG/EMG analysis; assay type: functional, organism-based; details: time 12-18 hrs

Row | Structure (SMILES) | IC50 (Orexin receptor type 2) [nM] | Ki [1] [nM] | Ki (Orexin receptor type 2) [nM] | further results
1 | C[C@]1(c2cccc(NC(=O)c3ccccc3)c2)O[C@H]2CO[C@@H]3N2[C@H]1O[C@]3(C)c1cccc(NC(=O)c2ccccc2)c1 | > 10000 | 25.4 |  | 
2 | CN(C)c1ccc(C(=O)Nc2cccc([C@]3(C)O[C@H]4CO[C@@H]5N4[C@H]3O[C@@]5(C)c3cccc(NC(=O)c4ccc(N(C)C)cc4)c3)c2)cc1 | > 10000 |  |  | IC50 [1]: > 10000 nM
3 | COc1cccc(C(=O)Nc2cccc([C@@]3(C)O[C@H]4CO[C@@H]5N4[C@H]3O[C@]5(C)c3cccc(NC(=O)c4cccc(OC)c4)c3)c2)c1 | > 10000 | 2.86 |  | 
4 | COc1ccccc1C(=O)Nc1cccc([C@]2(C)O[C@@H]3N4[C@H](CO[C@H]42)O[C@@]3(C)c2cccc(NC(=O)c3ccccc3)c2)c1 |  | 18 | 56 | 
5 | COc1ccc(C(=O)Nc2cccc([C@@]3(C)O[C@@H]4CO[C@H]5N4[C@@H]3O[C@]5(C)c3cccc(NC(=O)c4ccc(OC)cc4)c3)c2)cc1 |  | 110 |  | 
6 | CC(C)(C)OC(=O)Nc1cccc([C@]2(C)O[C@H]3CO[C@@H]4N3[C@H]2O[C@@]4(C)c2cccc(NC(=O)OC(C)(C)C)c2)c1 |  | 34.2 | 180 | 
7 | COc1ccc(C(=O)Nc2cccc([C@@]3(C)O[C@H]4CO[C@@H]5N4[C@H]3O[C@]5(C)c3cccc(NC(=O)c4ccc(OC)cc4)c3)c2)cc1 |  | 1.87 |  | microsomal CLint [2]: 183 µL/min/mg; Activity (Mus musculus [3]): Dde; Ct [4]: 33.9 pmol/g; Papp A→B [5]: 11.9 ×10⁻⁶ cm/s; Papp [6]: > 10 ×10⁻⁶ cm/s; half-life [7]: 39 min
8 | CN(C)c1ccccc1C(=O)Nc1cccc([C@@]2(C)O[C@H]3CO[C@@H]4N3[C@H]2O[C@]4(C)c2cccc(NC(=O)c3ccccc3N(C)C)c2)c1 | > 10000 | 634 |  | 
9 | CN(C)c1cccc([C@]2(C)O[C@H]3CO[C@@H]4N3[C@H]2O[C@@]4(C)c2cccc(N(C)C)c2)c1 |  |  | 655 | IC50 [1]: > 10000 nM
10 | C[C@@]1(c2cccc(NS(=O)(=O)c3ccccc3)c2)O[C@H]2CO[C@@H]3N2[C@H]1O[C@]3(C)c1ccc(NS(=O)(=O)c2ccccc2)cc1 |  |  | 222 | IC50 [1]: > 10000 nM
11 | COc1cccc(C(=O)Nc2cccc([C@@]3(C)O[C@H]4CO[C@@H]5N4[C@H]3O[C@]5(C)c3cccc(NC(=O)c4ccccc4OC)c3)c2)c1 |  | 32.8 |  | 
12 | CN(C)c1cccc(C(=O)Nc2cccc([C@]3(C)O[C@H]4CO[C@@H]5N4[C@H]3O[C@@]5(C)c3cccc(NC(=O)c4cccc(N(C)C)c4)c3)c2)c1 | > 10000 |  |  | IC50 [1]: > 10000 nM
13 | CN(C)c1ccc(C(=O)Nc2cccc([C@@]3(C)O[C@H]4CO[C@@H]5N4[C@H]3O[C@]5(C)c3cccc(NC(=O)c4ccc(N(C)C)cc4)c3)c2)cc1 | > 10000 | 3.88 |  | 
14 | COc1ccc(C(=O)Nc2cccc([C@]3(C)O[C@H]4CO[C@@H]5N4[C@H]3O[C@@]5(C)c3cccc(NC(=O)c4ccc(OC)cc4)c3)c2)cc1 |  | 3.99 |  | microsomal CLint [2]: 184 µL/min/mg; Papp A→B [8]: 1.4 ×10⁻⁶ cm/s; Ct [4]: 54.7 pmol/g; Activity (Mus musculus [9]): Active; half-life [7]: 38 min; Activity (Mus musculus [10]): Active
15 | COc1ccc(C(=O)Nc2cccc([C@]3(C)O[C@@H]4CO[C@H]5N4[C@@H]3O[C@@]5(C)c3cccc(NC(=O)c4ccc(OC)cc4)c3)c2)cc1 |  | 2.17 |  | 
16 | C[C@@]1(c2cccc(NC(=O)c3cccnc3)c2)O[C@H]2CO[C@@H]3N2[C@H]1O[C@@]3(C)c1cccc(NC(=O)c2cccnc2)c1 |  | 691 | 261 | 
17 | C[C@]1(c2cccc(NC(=O)c3ccncc3)c2)O[C@H]2CO[C@@H]3N2[C@H]1O[C@]3(C)c1cccc(NC(=O)c2ccncc2)c1 | > 10000 | 104 |  | 
18 | C[C@@]1(c2cccc(NC(=O)c3ccncc3)c2)O[C@H]2CO[C@@H]3N2[C@H]1O[C@@]3(C)c1cccc(NC(=O)c2ccncc2)c1 |  |  | 179 | IC50 [1]: > 10000 nM
19 | COc1ccc(C(=O)Nc2cccc(C3(C)OC4COC5N4C3OC5(C)c3cccc(NC(=O)c4ccc(OC)cc4)c3)c2)cc1 (mixture of isomers) |  | 11.7 |  | 
20 | C[C@@]1(c2cccc(NC(=O)c3ccccc3)c2)O[C@H]2CO[C@@H]3N2[C@H]1O[C@@]3(C)c1cccc(NC(=O)c2ccccc2)c1 |  | 23.4 | 15.1 | 
21 | C[C@]1(c2cccc(NC(=O)c3cccnc3)c2)O[C@H]2CO[C@@H]3N2[C@H]1O[C@]3(C)c1cccc(NC(=O)c2cccnc2)c1 | > 10000 | 52 |  | 
22 | C[C@]1(c2cccc(NC(=O)c3ccccn3)c2)O[C@H]2CO[C@@H]3N2[C@H]1O[C@]3(C)c1cccc(NC(=O)c2ccccn2)c1 | > 10000 | 18.3 |  | 
23 | COc1cccc(C(=O)Nc2cccc([C@]3(C)O[C@@H]4N5[C@H](CO[C@H]53)O[C@@]4(C)c3cccc(NC(=O)c4ccccc4)c3)c2)c1 |  | 7.66 | 5.38 | 
24 | COc1ccc(C(=O)Nc2cccc(C3(C)OC4COC5N4C3OC5(C)c3cccc(NC(=O)c4ccc(OC)cc4)c3)c2)cc1 (racemic) |  | 4.93 |  | 
25 | CN(C)c1cccc(C(=O)Nc2cccc([C@@]3(C)O[C@H]4CO[C@@H]5N4[C@H]3O[C@]5(C)c3cccc(NC(=O)c4cccc(N(C)C)c4)c3)c2)c1 | > 10000 | 7.85 |  | 
26 | CN(C)c1ccccc1C(=O)Nc1cccc([C@]2(C)O[C@H]3CO[C@@H]4N3[C@H]2O[C@@]4(C)c2cccc(NC(=O)c3ccccc3N(C)C)c2)c1 | > 10000 |  |  | IC50 [1]: > 10000 nM
27 | C[C@@]1(c2cccc(NC(=O)c3ccccn3)c2)O[C@H]2CO[C@@H]3N2[C@H]1O[C@@]3(C)c1cccc(NC(=O)c2ccccn2)c1 |  | 14.9 | 69.6 | 
